Reference: patent publication US8859549B2, “Potassium channel modulators” (AbbVie, Inc., priority 2011, dated 2014)

Target: T1, KCNQ 2/3 channels (Homo sapiens, UniProt O43525+O43526)
T1 construct: expressed in transfected cells; host or cells: HEK293
Assay: KCNQ 2/3 channel activation, thallium flux FLIPR assay (BTC-AM dye)
Format: cell-based
Conditions: for Emax: HEK293, maximum response relative to the response of 10 μM retigabine (set at 100%), HEK293 KCNQ2/KCNQ3 cells, read-out: % MAX; for EC50: HEK293 cells stably expressing human KCNQ2 and KCNQ3 subunits, thallium-induced fluorescence, 4 min compound incubation
Procedure, shortened: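 HEK293 cells stably expressing human KCNQ2/KCNQ3 were loaded with BTC-AM (3 μg/mL, 2 h, RT) and preincubated with compound for 4 min in pH 7.3 gluconate buffer containing 0.1 mM ouabain. Flux was triggered by 6 mM TlNO3/10 mM K2SO4 and read for 3 min; EC50 came from summed responses over basal, with maximum relative to 10 μM retigabine (100%).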

Row | SMILES | Emax | EC50
1 | CC(C)(C)CNC(=O)Cc1nn(NC(=O)Cc2ccc(Cl)cc2)c(=O)c2ccccc12 [Example 123, 2-(4-chlorophenyl)-N-[4-{2-[(2,2-dimethylpropyl)amino]-2-oxoethyl}-1-oxophthalazin-2(1H)-yl]acetamide] | 13% | –
2 | CC(C)(C)OC(=O)NCc1nn(NC(=O)CC2CCC(F)(F)CC2)c(=O)c2ccccc12 [Example 124, tert-butyl[(3-{[(4,4-difluorocyclohexyl)acetyl]amino}-4-oxo-3,4-dihydrophthalazin-1-yl)methyl]carbamate] | 72.5% | 8.05 µM
3 | CC(C)(C)OC(=O)NCc1nn(NC(=O)Cc2ccc(F)cc2)c(=O)c2ccccc12 [Example 125, tert-butyl[(3-{[(4-fluorophenyl)acetyl]amino}-4-oxo-3,4-dihydrophthalazin-1-yl)methyl]carbamate] | 93.1% | 9.9 µM
4 | CC(C)(C)OC(=O)NCc1nn(NC(=O)CC2CCCCC2)c(=O)c2ccccc12 [Example 126, tert-butyl({3-[(cyclohexylacetyl)amino]-4-oxo-3,4-dihydrophthalazin-1-yl}methyl)carbamate] | 25.6% | –
5 | O=C(Cc1ccc(Cl)cc1)Nn1nc(Oc2ccccc2)c2ccccc2c1=O [Example 127, 2-(4-chlorophenyl)-N-(1-oxo-4-phenoxyphthalazin-2(1H)-yl)acetamide] | 87.4% | 0.18 µM
6 | O=C(Cc1ccc(Cl)cc1)Nn1nc(CNC(=O)OC2CCCCC2)c2ccccc2c1=O [Example 128, cyclohexyl[(3-{[(4-chlorophenyl)acetyl]amino}-4-oxo-3,4-dihydrophthalazin-1-yl)methyl]carbamate] | 21.6% | –
7 | O=C(Cc1ccc(Cl)cc1)Nn1nc(CNC(=O)OCC(F)(F)F)c2ccccc2c1=O [Example 129, 2,2,2-trifluoroethyl[(3-{[(4-chlorophenyl)acetyl]amino}-4-oxo-3,4-dihydrophthalazin-1-yl)methyl]carbamate] | 33.7% | 1.28 µM
8 | CS(=O)(=O)c1ccc(CC(=O)Nn2nc(N3CCOCC3)c3ccccc3c2=O)cc1 [Example 130, 2-[4-(methylsulfonyl)phenyl]-N-[4-(morpholin-4-yl)-1-oxophthalazin-2(1H)-yl]acetamide] | 5.33% | –
9 | O=C(Cc1cccc(Oc2ccccc2)c1)Nn1nc(N2CCOCC2)c2ccccc2c1=O [Example 131, N-[4-(morpholin-4-yl)-1-oxophthalazin-2(1H)-yl]-2-(3-phenoxyphenyl)acetamide] | 17.1% | –
10 | O=C(Cc1ccc(OC(F)(F)F)cc1)Nn1nc(N2CCOCC2)c2ccccc2c1=O [Example 132, N-[4-(morpholin-4-yl)-1-oxophthalazin-2(1H)-yl]-2-[4-(trifluoromethoxy)phenyl]acetamide] | 105% | 1.69 µM
11 | CC(C)(C)CC(=O)Nn1nc(N2CCOCC2)c2ccccc2c1=O [Example 135, 3,3-dimethyl-N-[4-(morpholin-4-yl)-1-oxophthalazin-2(1H)-yl]butanamide] | 75.3% | 11.8 µM
12 | O=C(CC(F)(F)F)Nn1nc(N2CCOCC2)c2ccccc2c1=O [Example 136, 3,3,3-trifluoro-N-[4-(morpholin-4-yl)-1-oxophthalazin-2(1H)-yl]propanamide] | 49.1% | 6.23 µM
13 | O=C(CC1CCCC1)Nn1nc(N2CCOCC2)c2ccccc2c1=O [Example 137, 2-cyclopentyl-N-[4-(morpholin-4-yl)-1-oxophthalazin-2(1H)-yl]acetamide] | 135% | 7.68 µM
14 | O=C(CC1CCCCC1)Nn1nc(N2CCOCC2)c2ccccc2c1=O [Example 138, 2-cyclohexyl-N-[4-(morpholin-4-yl)-1-oxophthalazin-2(1H)-yl]acetamide] | 153% | 3.89 µM
15 | Cc1ccccc1CC(=O)Nn1nc(N2CCOCC2)c2ccccc2c1=O [Example 139, 2-(2-methylphenyl)-N-[4-(morpholin-4-yl)-1-oxophthalazin-2(1H)-yl]acetamide] | -1.4% | –
16 | Cc1cccc(CC(=O)Nn2nc(N3CCOCC3)c3ccccc3c2=O)c1 [Example 140, 2-(3-methylphenyl)-N-[4-(morpholin-4-yl)-1-oxophthalazin-2(1H)-yl]acetamide] | 103% | 6.89 µM
17 | Cc1ccc(CC(=O)Nn2nc(N3CCOCC3)c3ccccc3c2=O)cc1 [Example 141, 2-(4-methylphenyl)-N-[4-(morpholin-4-yl)-1-oxophthalazin-2(1H)-yl]acetamide] | 72% | 5.24 µM
18 | O=C(Cc1ccccc1[N+](=O)[O-])Nn1nc(N2CCOCC2)c2ccccc2c1=O [Example 142, N-[4-(morpholin-4-yl)-1-oxophthalazin-2(1H)-yl]-2-(2-nitrophenyl)acetamide] | 1.59% | –
19 | O=C(Cc1cccc(O)c1)Nn1nc(N2CCOCC2)c2ccccc2c1=O [Example 143, 2-(3-hydroxyphenyl)-N-[4-(morpholin-4-yl)-1-oxophthalazin-2(1H)-yl]acetamide] | 43.8% | –

Row | SMILES | Emax | EC50
20 | O=C(Cc1ccc(O)cc1)Nn1nc(N2CCOCC2)c2ccccc2c1=O [Example 144, 2-(4-hydroxyphenyl)-N-[4-(morpholin-4-yl)-1-oxophthalazin-2(1H)-yl]acetamide] | 39.9% | 6.87 µM
21 | COc1ccccc1CC(=O)Nn1nc(N2CCOCC2)c2ccccc2c1=O [Example 145, 2-(2-methoxyphenyl)-N-[4-(morpholin-4-yl)-1-oxophthalazin-2(1H)-yl]acetamide] | 1.73% | –
22 | COc1cccc(CC(=O)Nn2nc(N3CCOCC3)c3ccccc3c2=O)c1 [Example 146, 2-(3-methoxyphenyl)-N-[4-(morpholin-4-yl)-1-oxophthalazin-2(1H)-yl]acetamide] | 17.6% | –
23 | COc1ccc(CC(=O)Nn2nc(N3CCOCC3)c3ccccc3c2=O)cc1 [Example 147, 2-(4-methoxyphenyl)-N-[4-(morpholin-4-yl)-1-oxophthalazin-2(1H)-yl]acetamide] | 18.7% | –
24 | O=C(Cc1ccccc1F)Nn1nc(N2CCOCC2)c2ccccc2c1=O [Example 148, 2-(2-fluorophenyl)-N-[4-(morpholin-4-yl)-1-oxophthalazin-2(1H)-yl]acetamide] | 18.7% | –
25 | O=C(Cc1cccc(F)c1)Nn1nc(N2CCOCC2)c2ccccc2c1=O [Example 149, 2-(3-fluorophenyl)-N-[4-(morpholin-4-yl)-1-oxophthalazin-2(1H)-yl]acetamide] | 82.7% | 5.28 µM
26 | O=C(Cc1ccc(F)cc1)Nn1nc(N2CCOCC2)c2ccccc2c1=O [Example 150, 2-(4-fluorophenyl)-N-[4-(morpholin-4-yl)-1-oxophthalazin-2(1H)-yl]acetamide] | 71.7% | 12.9 µM
27 | O=C(Cc1ccccc1Cl)Nn1nc(N2CCOCC2)c2ccccc2c1=O [Example 151, 2-(2-chlorophenyl)-N-[4-(morpholin-4-yl)-1-oxophthalazin-2(1H)-yl]acetamide] | 7.89% | –
28 | O=C(Cc1cccc(Cl)c1)Nn1nc(N2CCOCC2)c2ccccc2c1=O [Example 152, 2-(3-chlorophenyl)-N-[4-(morpholin-4-yl)-1-oxophthalazin-2(1H)-yl]acetamide] | 80% | 5.51 µM
29 | O=C(Cc1ccccc1Br)Nn1nc(N2CCOCC2)c2ccccc2c1=O [Example 153, 2-(2-bromophenyl)-N-[4-(morpholin-4-yl)-1-oxophthalazin-2(1H)-yl]acetamide] | 1.17% | –
30 | O=C(Cc1cccc(Br)c1)Nn1nc(N2CCOCC2)c2ccccc2c1=O [Example 154, 2-(3-bromophenyl)-N-[4-(morpholin-4-yl)-1-oxophthalazin-2(1H)-yl]acetamide] | 114% | 2.9 µM
31 | O=C(Cc1ccc(Br)cc1)Nn1nc(N2CCOCC2)c2ccccc2c1=O [Example 155, 2-(4-bromophenyl)-N-[4-(morpholin-4-yl)-1-oxophthalazin-2(1H)-yl]acetamide] | 110% | 2.56 µM
32 | O=C(Cc1cccc([N+](=O)[O-])c1)Nn1nc(N2CCOCC2)c2ccccc2c1=O [Example 156, N-[4-(morpholin-4-yl)-1-oxophthalazin-2(1H)-yl]-2-(3-nitrophenyl)acetamide] | 32.8% | –
33 | O=C(Cc1ccc(-c2ccccc2)cc1)Nn1nc(N2CCOCC2)c2ccccc2c1=O [Example 158, 2-(biphenyl-4-yl)-N-[4-(morpholin-4-yl)-1-oxophthalazin-2(1H)-yl]acetamide] | 6.84% | –
34 | O=C(Cc1cccc(C(F)(F)F)c1)Nn1nc(N2CCOCC2)c2ccccc2c1=O [Example 160, N-[4-(morpholin-4-yl)-1-oxophthalazin-2(1H)-yl]-2-[3-(trifluoromethyl)phenyl]acetamide] | 62.1% | 9.68 µM
35 | O=C(Cc1ccc(C(F)(F)F)cc1)Nn1nc(N2CCOCC2)c2ccccc2c1=O [Example 161, N-[4-(morpholin-4-yl)-1-oxophthalazin-2(1H)-yl]-2-[4-(trifluoromethyl)phenyl]acetamide] | 93% | –
36 | O=C(Cc1cccc(OC(F)(F)F)c1)Nn1nc(N2CCOCC2)c2ccccc2c1=O [Example 162, N-[4-(morpholin-4-yl)-1-oxophthalazin-2(1H)-yl]-2-[3-(trifluoromethoxy)phenyl]acetamide] | 87.4% | 1.52 µM
37 | O=C(Cc1ccc(Oc2ccccc2)cc1)Nn1nc(N2CCOCC2)c2ccccc2c1=O [Example 163, N-[4-(morpholin-4-yl)-1-oxophthalazin-2(1H)-yl]-2-(4-phenoxyphenyl)acetamide] | 30.8% | –
38 | O=C(Cc1ccc(OCc2ccccc2)cc1)Nn1nc(N2CCOCC2)c2ccccc2c1=O [Example 164, 2-[4-(benzyloxy)phenyl]-N-[4-(morpholin-4-yl)-1-oxophthalazin-2(1H)-yl]acetamide] | 22% | –
